Results reported in publication PMC10222270, “Natural Product-Based Screening for Lead Compounds Targeting SARS CoV-2 M^pro” (Pharmaceuticals, 2023).
Several values for one entry are separate records, joined by “and”; a condition that tells them apart may be missing. Equal entries are not always repeated. Structures can show the parent of a compound that is named as a salt. Where two headings read alike, the source gives them in different places.

Experiments:
[1] = molecular target: T1, SARS CoV-2 M^pro (Severe acute respiratory syndrome coronavirus 2, UniProt P0DTD1); assay: nanoDSF thermal shift assay (TSA); format: binding; settings: for △T: versus M^pro+DMSO; for Kd: x-intercept of linear regression of ΔTm on log10 of compound concentration, read-out: Kobs
T1 construct: The main protease (M^pro) is a part of the polyprotein chain, also named 3C-like protease; SUMO (cleaved yes); His; made in house; host or cells: Escherichia coli BL21(DE3)

[2] = molecular target: T1, SARS CoV-2 M^pro; assay: biochemical; format: biochemical; settings: for inhibition at 80 µM: read-out: Inhibition%(80μM)
[3] = molecular target: T1, SARS CoV-2 M^pro; assay: Surface plasmon resonance (SPR) binding to biotinylated M^pro; settings: for binding trend to M^pro: SPR, single concentration 200 μM
[4] = 0.02%(v/v) Triton X−100 in buffer

Row | SMILES | Tm of M^pro ([1]; compound 3.125 μM) | △T ([1]; compound 3.125 μM) | Tm of M^pro ([1]; compound 50 μM) | △T ([1]; compound 50 μM) | Tm of M^pro ([1]; compound 200 μM) | △T ([1]; compound 200 μM) | inhibition at 80 µM ([2]; 80 μM compound, first value column of Table S2) | inhibition at 80 µM ([2]; 80 μM compound, second value column of Table S2) | inhibition at 80 µM ([2]; 80 μM compound, third value column of Table S2) | Kd [1] | Inhibition%(80μM) [2] | IC50 ([2]; Without Triton X−100) | inhibition at 80 µM [2] | binding trend to M^pro [3] | IC50 [2, 4] | Kd ([3]; SPR multi-cycle mode, steady-state affinity, PBST, 7% DMSO)
1 | O=c1cc(-c2ccccc2)oc2cc(O)c(O)c(O)c12 [baicalein, Baicalein, reference compound] | 55.2 °C | 0.3 °C | 56.6 °C | 1.7 °C | 57.0 °C | 2.1 °C | 99.9% | 101% | 98.7% |  |  |  |  |  |  | 
2 | CC(C)CCCC(C)C1CCC2C3CC=C4CC(OS(=O)(=O)O)CCC4(C)C3CCC12C (centres unmarked) [cholesteryl sodium sulfate, Cholesteryl sodium sulfate] | 55.0 °C | 0.1 °C | 54.1 °C | -0.8 °C | 48.9 °C | -6.0 °C |  |  |  | 7600 nM | 100.30% and 100.48% | 2740 ± 234 nM | 100% |  |  | 
3 | COc1cc2ccc(=O)oc2c(O)c1O [fraxetin, Fraxetin] |  |  |  |  |  |  |  |  |  |  | 97.85% and 96.97% | 2490 ± 178 nM | 96.8% | no binding trends | 1300 ± 208 nM | 
4 | CCCCCC/C=C\CCCCCCCc1cccc(O)c1C(=O)O [ginkgolic acid C15:1, Ginkgolic Acid C15:1] |  |  |  |  |  |  |  |  |  |  | 107.06% | 9350 ± 531 nM | 104% |  |  | 227000 nM
5 | CC(=O)OCCc1ccc(O)c(O)c1 [hydroxytyrosol acetate, Hydroxytyrosol Acetate] |  |  |  |  |  |  |  |  |  |  | 103.09% and 102.91% | 3850 ± 576 nM | 103% | no binding trends | 3780 ± 453 nM | 
6 | Cc1c(=O)c(=O)c2c3c[nH]c4c(C)c(=O)c(=O)c(c5c[nH]c1c52)c43 [melanin, Melanin] | 55.0 °C | 0.1 °C | 54.9 °C | 0.0 °C | 54.4 °C | -0.5 °C |  |  |  | 11600 nM | 96.84% and 96.92% | 7370 ± 368 nM | 95.8% |  |  | 
7 | COc1cc(C(=S)N2CCOCC2)ccc1O [vanitiolide, Vanitiolide] |  |  |  |  |  |  |  |  |  |  | 99.16% and 98.95% | 2840 ± 225 nM | 99.1% | no binding trends | 1420 ± 76 nM | 
8 | COc1cc(O)c2c(c1)oc(=O)c1c3cc(O)c(O)cc3oc21 [wedelolactone, Wedelolactone] | 55.2 °C | 0.3 °C | 55.8 °C | 0.9 °C | 56.1 °C | 1.2 °C |  |  |  | 977 nM | 101.88% and 102.36% | 1000 ± 238 nM | 102% |  | 2510 ± 276 nM | 
9 | CC(C)=CC[C@H](OC(=O)C=C(C)C)C1=CC(=O)c2c(O)ccc(O)c2C1=O [β,β–dimethylacrylalkannin, β,β-Dimethylacrylalkannin] |  |  | 57.7 °C | 2.8 °C | 58.3 °C | 3.4 °C |  |  |  | 1900 nM | 99.09% and 97.96% | 2730 ± 308 nM | 100% |  | 2890 ± 185 nM | 
